The values that follow come from patent US6870069B2, “Phenyloxyaniline derivatives” (National Institute of Radiological Sciences, priority 2003, dated 2005).

By IC50 is commonly meant the midpoint of a concentration-inhibition curve. A lower IC50 goes with higher potency. As a reminder, the logP is the decadic logarithm of the partition coefficient of the neutral form, usually between octanol and water. Lower therefore signals a more hydrophilic compound.

Data set [1] concerns the target T1, central benzodiazepine receptor (CBR).
T1 construct: IC50 CBR; other: [11C]flumazenil
As to the kind of experiment: Affinity to CBR using [11C]flumazenil, a selective ligand for CBR. The class given is binding, rat. The note with it: [11C]flumazenil. How it is done:
(§1) On the other hand, affinity of FMDAA1106 and FEDAA1106 to central benzodiazepine receptor (CBR) was determined (Table 1) using [^11C]flumazenil which is a selective ligand for CBR. As a result, affinity of FEDAA1106 and FMDAA1106 to CBR was not less than 10 μM and was about 10,000-fold weaker than the affinity of PBR. […] Incidentally, partition coefficients (log P) of the two ligands were measured by an octanol/water (pH 7.4) partition method.

Data set [2] can be described thus: Partition coefficient (log P) by octanol/water (pH 7.4) partition method. In kind it is physicochemical. How it is done:
as §1

In data set [3] the target is T2, peripheral benzodiazepine receptor (PBR) (Rattus norvegicus, UniProt P16257).
T2 construct: Sagittal sections of the rat were prepared using Crystat microtome; from tissue; host or cells: rat brain sagittal sections (ROI: olfactory bulb)
As to the kind of experiment: In vitro affinity to PBR: displacement of [11C]DAA1106 binding on rat brain sections (autoradiography, olfactory bulb ROI). Conditions: for IC50: [11C]DAA1106 1 nM, rat brain sections, olfactory bulb, 37° C. 30 minutes, probit method. How it is done:
Under anesthetization with ether, male Sprague-Dawley rats (250 to 300 g; n=4) were slaughtered and the brain was quickly cut and frozen in dry ice. Sagittal sections of the rat were prepared using Crystat microtome (MICROM HM560, Carl Zeiss GmbH, Germany). The sections were previously incubated in a 50 mM Tris buffer (pH=7.4) for 30 minutes. After that, the sections were taken out and again incubated at 37° C. for 30 minutes in 50 mM Tris buffer (pH=7.4) containing each of the following reagents at the same time.
After completion of the incubation, the section was taken out and dipped in an ice-cooled Tris buffer for 2 minutes twice. The section was dipped in ice-cooled distilled water and then dried. […] A region of interest (ROI) was defined as an olfactory bulb and radioactivity was expressed in terms of a photo-stimulated-luminescence (PSL)/mm^2 region. Specific binding of [^11C]DAA1106 in the presence of DAA1106, PK11156, FMDAA1106 and FEDAA1106 of various concentrations was determined and IC50 (nM) of those reagents was calculated by a probit method.
A general note: In a radioligand displacement assay an active substance lowers the binding of a labelled ligand.

Data set [4] has as its system central benzodiazepine receptor (CBR). As to the kind of experiment: Affinity to CBR using [11C]flumazenil, a selective ligand for CBR. In kind it is binding, rat. The note with it: CBR versus PBR selectivity. How it is done: as §1

Each structure is given as a SMILES string.

Take `COc1ccc(OC)c(CN(C(C)=O)c2cc(F)ccc2Oc2ccccc2)c1` [DAA1106, N-(2,5-dimethoxybenzyl)-N-(5-fluoro-2-phenoxyphenyl)acetamide, reference compound]: the IC50 in data set [1] was more than 10000 nM; in data set [3], 1.62 nM. The logP in data set [2] stood at 3.65.
Take `COc1ccc(OCCF)c(CN(C(C)=O)c2cc(F)ccc2Oc2ccccc2)c1` [FEDAA1106, N-[2-(2-fluoro)ethyl-5-methoxybenzyl]-N-(5-fluoro-2-phenoxyphenyl)acetamide]: the IC50 in data set [1] was more than 10000 nM; in data set [3] it was 0.77 nM. In addition, in data set [4], the “affinity to CBR weaker than the affinity of PBR” value is “about 10,000 fold”. In data set [2], this compound showed a logP of 3.81. The “affinity to PBR as compared with DAA1106” value in data set [3] (relative to DAA1106) is recorded as “two-fold higher affinity”. The “affinity to PBR as compared with PK11195” value in data set [3] (relative to PK11195) was “about ten-fold stronger affinity”.
`CCC(C)N(C)C(=O)c1cc2ccccc2c(-c2ccccc2Cl)n1` (stereo not shown) [PK11195, N-methyl-N-(1-methylpropyl)-1-(2-chlorophenyl)-isoquinoline-3-carboxamide, reference compound] displayed an IC50 in data set [1] of more than 10000 nM.
